Results on 1 molecule are retold here after patent US7544708B2, “Azabicyclo derivatives as muscarinic receptor antagonists” (Ranbaxy Laboratories Limited, priority 2002, dated 2009).

SMILES strings stand for the structures.

Data set [1] has as its target T1, M3 muscarinic receptor subtype (rat submandibular gland) (Rattus norvegicus, UniProt P08483).
T1 construct: Submandibular glands and heart were isolated and placed in ice cold homogenising buffer; from tissue; host or cells: rat submandibular gland membranes
Briefly: Radioligand binding assay, [3H]-N-methylscopolamine, M3. The note with it: Receptor Binding Assay M3 Pki. As for the experimental part: (§1) The membrane preparation was done with the following modifications: a low spin step of 500 g for 10 minutes at 4° C. was used; the buffer was 20 mM HEPES, 10 mM EDTA, at pH 7.4; the high speed spin was done at 40,000 g and the homogenate was passed through a filter gauge before any spinning.
(§2) Membrane preparation: Submandibular glands and heart were isolated and placed in ice cold homogenising buffer (HEPES 20 mM, 10 mM EDTA, pH 7.4) immediately after sacrifice. The tissues were homogenised in 10 volumes of homogenising buffer and the homogenate was filtered through two layers of wet gauze and filtrate was centrifuged at 500 g for 10 min. The supernatant was subsequently centrifuged at 40,000 g for 20 min. The pellet thus obtained was resuspended in same volume of assay buffer (HEPES 20 mM, EDTA 5 mM, pH 7.4) and were stored at −700C until the time of assay.
(§3) Ligand binding assay: The compounds were dissolved and diluted in DMSO. The membrane homogenates (150-250 μg protein) were incubated in 250 μl of assay buffer (HEPES 20 mM, pH 7.4) at 24-25° C. for 3 h. […] The incubation was terminated by vacuum filtration over GF/B fiber filters (Wallac). The filters were then washed with ice cold 50 mM Tris HCl buffer (pH 7.4). The filter mats were dried and bound radioactivity retained on filters was counted. The IC50 and Kd were estimated by using the non-linear curve fitting program using G Pad Prism software.

The target of data set [2] is T2, M2 muscarinic receptor subtype (rat heart) (Rattus norvegicus, UniProt P10980).
T2 construct: Submandibular glands and heart were isolated and placed in ice cold homogenising buffer; from tissue; host or cells: rat heart membranes
T2 sequence (P10980 1-466): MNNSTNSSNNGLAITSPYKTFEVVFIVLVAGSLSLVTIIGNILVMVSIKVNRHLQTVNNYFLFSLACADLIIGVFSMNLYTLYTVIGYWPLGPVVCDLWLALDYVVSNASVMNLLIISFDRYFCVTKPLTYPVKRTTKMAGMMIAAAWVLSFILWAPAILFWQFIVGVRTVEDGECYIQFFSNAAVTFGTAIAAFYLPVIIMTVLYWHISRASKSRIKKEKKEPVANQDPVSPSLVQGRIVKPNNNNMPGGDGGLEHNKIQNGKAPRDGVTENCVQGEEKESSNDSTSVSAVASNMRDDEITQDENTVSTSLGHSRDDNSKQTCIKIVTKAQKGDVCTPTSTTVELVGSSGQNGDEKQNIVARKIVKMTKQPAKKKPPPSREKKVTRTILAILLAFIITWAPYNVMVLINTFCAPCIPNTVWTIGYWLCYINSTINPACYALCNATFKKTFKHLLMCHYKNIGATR
Nature of the data set: Radioligand binding assay, [3H]-N-methylscopolamine, M2. The note with it: Receptor Binding Assay M2 pKi. On the procedure:
as §1, §2, §3

T1 sequence (P08483 whole entry): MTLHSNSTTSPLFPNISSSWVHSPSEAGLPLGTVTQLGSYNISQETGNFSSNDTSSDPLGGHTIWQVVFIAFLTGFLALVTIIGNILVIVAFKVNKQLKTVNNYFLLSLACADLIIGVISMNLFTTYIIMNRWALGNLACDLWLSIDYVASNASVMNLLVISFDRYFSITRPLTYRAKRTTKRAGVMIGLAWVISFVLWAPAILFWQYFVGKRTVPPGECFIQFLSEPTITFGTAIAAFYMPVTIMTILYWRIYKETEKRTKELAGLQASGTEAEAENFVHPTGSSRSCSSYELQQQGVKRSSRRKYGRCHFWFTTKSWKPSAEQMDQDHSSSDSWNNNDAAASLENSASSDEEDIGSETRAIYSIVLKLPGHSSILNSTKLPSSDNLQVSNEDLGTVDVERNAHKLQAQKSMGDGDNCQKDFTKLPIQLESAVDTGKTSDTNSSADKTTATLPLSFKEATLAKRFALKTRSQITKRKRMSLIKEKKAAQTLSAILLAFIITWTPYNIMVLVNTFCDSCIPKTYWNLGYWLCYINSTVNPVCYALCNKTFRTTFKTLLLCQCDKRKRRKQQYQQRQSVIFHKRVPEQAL

Turning to `O=C(NC[C@H]1[C@@H]2CNC[C@@H]21)C(O)(c1ccccc1)C1CCCC1` (mixture of isomers) [Compound 1, (2R,2S) (1α,5α,6α)-N-[3-azabicyclo[3.1.0]hexyl-6-(aminomethyl)-yl]-2-hydroxy-2-cyclopentyl-2-phenyl acetamide], the melting point (as a rule, the temperature of the solid-liquid transition) lay in the range of 149 to 151 °C. The affinity in data set [1] corresponds to a Ki of 0.525 nM. For the same molecule, the Ki (in general, the dissociation constant of the complex between target and ligand, obtained from inhibition or displacement) in data set [2] was 12 nM.
